Where two headings read alike, the source gives them in different places.

Series [1] is classed as physicochemical. Set-up: key to Fibril / Fibril Formation / TEM 2cat / Fibril: 1 = fibrils present; 0 non-fibrillar structures. The note with it: for Fibril / Fibril Formation: 1 mg/mL, uranyl acetate stain, qualitative.
A short description of series [2]: Turbidity, derived count rate of scattered light. The series is classed as physicochemical. The note with it: for Count Rate: derived count rate of scattered light (turbidity); for Log10 Count Rate: turbidity, derived count rate of scattered light, data of Figure 2D.
A short description of series [3]: Turbidity, derived count rate of scattered light. In kind it is physicochemical. The note with it: for Count Rate / kcps: derived count rate of scattered light at 633 nm, 173°, from zeta-potential measurement, 0.1 mg/mL in 1 mM KCl after 1 d at 1 mg/mL in PBS, turbidity / microscopic aggregation, mean of triplicate; for Zeta Count Rate: peptides with TEM 2cat 0. The method in brief:
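Samples: 1 mg/mL in PBS pH 7.4 (from DMSO), 1 d at RT, then diluted in 1 mM KCl immediately before measurement. Triplicates, two independent runs averaged.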

Series [4] is described as follows: β-sheet content by ATR-FT-IR. The series is classed as physicochemical. The note with it: for b -sheet / %: Fig. S7 panel A, β-sheet content by ATR-FT-IR. A digest of the protocol: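 To obtain β-sheet content, 1 mg/mL PNF solutions are freeze-dried and the powders recorded by ATR FT-IR at 2 cm^-1 resolution with 64 scans. Free monomer for CR is removed by 3 kDa MWCO centrifugation at 4 °C, and amines in filtrate and unfiltered material are detected with fluorescamine.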

Series [5] is described as follows: Zeta-potential measurement. The series is classed as physicochemical. A digest of the protocol:
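In this measurement, peptides aggregated for a day at RT in phosphate-buffered saline (pH 7.4, 1 mg/mL) are diluted into 1 mM potassium chloride, and the electrophoretic mobility is translated into zeta potential by Smoluchowski's relation.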

Setting [6] is: FigS12 panel A, fibril category by TEM.
Setting [7] is: TEM, 1 = fibrils present, 0 = non-fibrillar.
The mark [8] stands for this setting: TEM, 1 = fibrils present, 0 = non-fibrillar structures.
The mark [9] stands for this setting: Log10 of derived count rate of scattered light (turbidity).
The mark [10] stands for this setting: logarithm of count rate in kcps.
[11] abbreviates: turbidity, Log10 of derived count rate of scattered light, Figure 3A source data.
[12] abbreviates: turbidity, log10 of derived count rate of scattered light.
Setting [13] is: zeta-potential of peptide, source data of Figure 2C.
Where [14] appears, read: zeta-potential of the peptide assemblies, mean, Figure 3A source data.
[15] abbreviates: Fig S10 panel D, fibril category by TEM.
Where [16] appears, read: log10 of derived count rate of scattered light (turbidity).
[17] abbreviates: zeta potential of peptide assemblies.
Setting [18] is: category: fibrils present or non-fibrillar.

Take KFKFQFN: the “TEM 2cat” value in series [1] (Fig S10 panel D) and in series [1] (setting [6]) was 1 throughout. Further, the Fibril was determined as 1 in series [1] (FigS12 panel B, TEM); 1 in series [1] (setting [7]); 1 in series [1] (setting [8]). The “Fibril / Fibril Formation” value in series [1] (TEM) is 1. In series [2], the “Count Rate” value is given as 50.7. In addition, the “Log10 Count Rate” value in series [2] was found to be 1.705; in series [3] (setting [9]), 1.705; in series [3] (setting [10]) it was 1.7; in series [3] (setting [11]), 1.705; in series [3] (setting [12]), 1.705. Besides, the “Count Rate / kcps” value in series [3] was determined as 51 kcps. In addition, in series [4] (ATR-FT-IR of lyophilised 1 mg/mL PNF solution, peak integral ratio 1625-1635 cm-1, measured once), the ß-sheet / % stood at 38%. Further, in series [4], the “b -sheet / %” value turned out to be 38.13%. The Zeta-Pot. in series [5] is on record as 12.7. For the same substance, in series [5] (1 mg/mL in PBS pH 7.4 from 10 mg/mL DMSO stock, 1 d RT, 60 µL diluted in 600 µL 1 mM KCl, Zetasizer Nano ZS, Smoluchowski, mean of triplicate), the “Zeta pot. / mV” value is given as 12.7 mV. The figures for the “Zeta-Potential / mV” value in series [5] (setting [13]) and in series [5] (setting [14]) were 10.12 mV and 12.7 mV, respectively.
Turning to KIKIQIRGD, the “TEM 2cat” value in series [1] (setting [15]) and in series [1] (setting [6]) was 1 in each case. Further, the Fibril is 1 in series [1] (FigS12 panel B, TEM); 1 in series [1] (setting [7]); 1 in series [1] (setting [8]). Moreover, the “Fibril / Fibril Formation” value in series [1] (TEM) is on record as 1. The “Count Rate” value in series [2] is 114. Moreover, the “Log10 Count Rate” value in series [2], in series [3] (setting [9]), in series [3] (setting [16]) and in series [3] (setting [11]) was 2.057 each time. Moreover, the “Count Rate / kcps” value in series [3] is reported as 114 kcps. Besides, in series [4], the “b -sheet / %” value came out at 47.12%. Besides, the Zeta-Pot. in series [5] (setting [17]) came out at 6.43. The “Zeta-Potential / mV” value is reported as 4.47 mV in series [5] (setting [13]) and 6.43 mV in series [5] (setting [14]).
On to KFKFKFQF, for which the “TEM 2cat” value in series [1] (setting [15]) and in series [1] (setting [18]) was 1 in each case. Besides, the Fibril in series [1] (Fig S10 panel E), in series [1] (setting [7]) and in series [1] (setting [8]) was 1 each time. For the same substance, the “Fibril / Fibril Formation” value in series [1] (TEM) worked out at 1. Also, in series [2], the “Count Rate” value stood at 1036. The “Log10 Count Rate” value in series [2], in series [3] (setting [9]), in series [3] (setting [16]) and in series [3] (setting [11]) was 3.015 throughout. In series [3], the “Count Rate / kcps” value was determined as 1036 kcps. Moreover, in series [4], the “b -sheet / %” value worked out at 39.76%. Further, the Zeta-Pot. in series [5] (setting [17]) came to 15.2. Moreover, the “Zeta-Potential / mV” value is on record as 16.32 mV in series [5] (setting [13]) and 15.2 mV in series [5] (setting [14]).
As to KLKLQLL, the “TEM 2cat” value in series [1] (setting [15]) and in series [1] (setting [6]) was 1 in each case. Also, the Fibril in series [1] (FigS12 panel B, TEM) was found to be 1; in series [1] (setting [7]) it was 1; in series [1] (setting [8]), 1. Further, in series [1] (TEM), the “Fibril / Fibril Formation” value amounted to 1. In series [2], the “Count Rate” value is recorded as 72.67. The “Log10 Count Rate” value in series [2], in series [3] (setting [9]), in series [3] (setting [16]) and in series [3] (setting [11]) was 1.861 throughout. In addition, the “Count Rate / kcps” value in series [3] is reported as 73 kcps. Further, the “b -sheet / %” value in series [4] was determined as 39.56%. Besides, the Zeta-Pot. in series [5] (setting [17]) is -4.93. Also, the “Zeta-Potential / mV” value in series [5] (setting [13]) was -3.1875 mV; in series [5] (setting [14]) it was -4.93 mV.
For CKIW, the “TEM 2cat” value in series [1] (setting [15]) and in series [1] (setting [6]) was 0 in each case. Further, the Fibril came to 0 in series [1] (Fig S10 panel E); 0 in series [1] (FigS12 panel B, TEM); 0 in series [1] (setting [7]); 0 in series [1] (setting [8]). In series [1] (TEM), the “Fibril / Fibril Formation” value was 0. Also, the “Count Rate” value in series [2] is listed as 3.2. The “Log10 Count Rate” value in series [2], in series [3] (setting [9]), in series [3] (setting [16]) and in series [3] (setting [11]) was 0.5051 each time. The “Count Rate / kcps” value in series [3] stood at 3 kcps. For the same substance, in series [4], the “b -sheet / %” value amounted to 46.02%. The Zeta-Pot. in series [5] was -3.71. In addition, the “Zeta-Potential / mV” value in series [5] (setting [13]) is reported as -2.772 mV; in series [5] (setting [14]), -3.71 mV.
Take KIKIKIKIWWWW: the “TEM 2cat” value in series [1] (setting [15]) and in series [1] (setting [18]) was 0 in each case. Further, in series [1] (TEM), the “Fibril / Fibril Formation” value is reported as 0. The Fibril in series [1] (setting [7]) and in series [1] (setting [8]) was 0 each time. Further, the “Count Rate” value in series [2] amounted to 12420.6. The “Log10 Count Rate” value in series [2], in series [3] (setting [9]), in series [3] (setting [16]) and in series [3] (setting [11]) was 4.094 in each case. Also, the “Count Rate / kcps” value in series [3] amounted to 12421 kcps. Moreover, in series [3], the “Zeta Count Rate” value amounted to 12421 kcp. In addition, the “b -sheet / %” value in series [4] was found to be 37.79%. Moreover, the Zeta-Pot. in series [5] (setting [17]) amounted to 15.2. Moreover, the “Zeta-Potential / mV” value in series [5] (setting [13]) was 14.82 mV; in series [5] (setting [14]) it was 15.2 mV.
Regarding CKAKAQA, the “TEM 2cat” value in series [1] (setting [15]) and in series [1] (setting [6]) was 0 throughout. For the same substance, the Fibril in series [1] (Fig S10 panel E) came to 0; in series [1] (FigS12 panel B, TEM), 0; in series [1] (setting [7]) it was 0; in series [1] (setting [8]) it was 0. Also, the “Fibril / Fibril Formation” value in series [1] (TEM) is listed as 0. Besides, the “Count Rate” value in series [2] stood at 362.7. In addition, the “Log10 Count Rate” value in series [2], in series [3] (setting [9]), in series [3] (setting [16]) and in series [3] (setting [11]) was 2.56 each time. In addition, the “Count Rate / kcps” value in series [3] was determined as 363 kcps. For the same substance, in series [4], the “b -sheet / %” value came to 34.73%. The Zeta-Pot. in series [5] (setting [17]) is recorded as -8.01. Besides, the “Zeta-Potential / mV” value in series [5] (setting [13]) was -5.031 mV; in series [5] (setting [14]), -8.01 mV.
HHHHKIKIKIKIWWWW: the “TEM 2cat” value in series [1] (setting [15]) and in series [1] (setting [18]) was 0 each time. In addition, the Fibril in series [1] (Fig S10 panel E), in series [1] (setting [7]) and in series [1] (setting [8]) was 0 in each case. Further, the “Fibril / Fibril Formation” value in series [1] (TEM) came out at 0. Further, the “Count Rate” value in series [2] amounted to 23756.66667. Further, the “Log10 Count Rate” value in series [2], in series [3] (setting [9]), in series [3] (setting [16]), in series [3] (setting [10]) and in series [3] (setting [11]) was 4.376 each time. Besides, the “Count Rate / kcps” value in series [3] turned out to be 23757 kcps. The “Zeta Count Rate” value in series [3] turned out to be 23757 kcp. Further, the “b -sheet / %” value in series [4] worked out at 48.8%. Also, in series [4] (peptides with TEM 2cat 0), the beta sheet worked out at 49. Moreover, the Zeta-Pot. in series [5] (setting [17]) is 14.5. For the same substance, the “Zeta-Potential / mV” value worked out at 14.42 mV in series [5] (setting [13]) and 14.5 mV in series [5] (setting [14]).
Take KFKFQFFF: the “TEM 2cat” value in series [1] (setting [15]) and in series [1] (setting [18]) was 1 each time. The Fibril in series [1] (Fig S10 panel E), in series [1] (setting [7]) and in series [1] (setting [8]) was 1 in each case. Moreover, the “Fibril / Fibril Formation” value in series [1] (TEM) stood at 1. Moreover, in series [2], the “Count Rate” value is given as 3039. The “Log10 Count Rate” value in series [2], in series [3] (setting [9]), in series [3] (setting [16]) and in series [3] (setting [11]) was 3.483 throughout. Also, the “Count Rate / kcps” value in series [3] is given as 3039 kcps. The “b -sheet / %” value in series [4] amounted to 49.11%. In addition, the Zeta-Pot. in series [5] (setting [17]) is recorded as 13.27. Further, the “Zeta-Potential / mV” value came to 15.57 mV in series [5] (setting [13]) and 13.27 mV in series [5] (setting [14]).
With CKFKQFF, the “TEM 2cat” value in series [1] (Fig S10 panel D) and in series [1] (setting [6]) was 0 each time. For the same substance, the Fibril is 0 in series [1] (Fig S10 panel E); 0 in series [1] (FigS12 panel B, TEM); 0 in series [1] (setting [7]); 0 in series [1] (setting [8]). Also, the “Fibril / Fibril Formation” value in series [1] (TEM) was 0. For the same substance, the “Count Rate” value in series [2] was determined as 2.567. Besides, the “Log10 Count Rate” value is reported as 0.4094 in series [2]; 0.4094 in series [3] (setting [9]); 0.4099 in series [3] (setting [10]); 0.4094 in series [3] (setting [11]); 0.4094 in series [3] (setting [12]). Moreover, the “Count Rate / kcps” value in series [3] came out at 3 kcps. The “b -sheet / %” value in series [4] came to 45.4057%. Also, the Zeta-Pot. in series [5] turned out to be 11.56. Moreover, the “Zeta-Potential / mV” value in series [5] (setting [13]) is 8.055 mV; in series [5] (setting [14]), 11.56 mV.

Source of the values: publication PMC10447463, “Data-mining unveils structure–property–activity correlation of viral infectivity enhancing self-assembling peptides” (Nature Communications, 2023).
